# Assay results as given in paper PMC11771932, “Integrated in silico and in vitro exploration of the anti-VEGFR-2 activities of a semisynthetic xanthine alkaloid inhibiting breast cancer” (PLOS ONE, 2025).
# Where two headings read alike, the source gives them in different places.
# Assays:
# Rat [1] = conditions: cited from earlier work
# Mouse = tested on: Mouse; design: method as in earlier work; conditions: structural similar compounds of the TOPKAT report; ref CPDB; cited from earlier work
# Rats = conditions: structural similar compounds of the TOPKAT report; ref NIIRDN 6;688;82, 85ARAE 4;118;76/77, DRFUD4 2;393;77, YRTMA6 9;11;78, FMCHA2 -;C149;89, ARZNAD 30;2023;80; cited from earlier work
# Rat [2] = conditions: structural similar compounds of the TOPKAT report; ref NCI/NTP TR-358, NCI/NTP TR-138, NCI/NTP TR-336; cited from earlier work
# MCF7 cells [3] = assay: Wound healing and migration assay; assay type: cell-based
# Procedure: The wound healing assay, a simple and cost-effective procedure, can assess the mobility and repair capacity of cancerous cells. In this method, a scratch is created on a layer of cancer cells, and the initial width is recorded. The healing of the scratch was observed periodically for both untreated and treated cells. Throughout the study, images of the scratched areas from both groups were compared at the 0-hour and 48-hour time points.
# Wound healing assay was accomplished for T-1-NBAB utilizing MCF7 cell lines. […]
# Wound healing and migration assay
# The wound healing assay allows the researcher to study cell migration and cell interactions. In […]
# some cases also single cell migration can be analyzed and this assay can be imaged […]
# 1. Cells were seeded in 6 multi-well plates and cultured until confluent. It is important that all the cultures are confluent at the start of the experiment.
# 2. (yellow) pipette tip was used to make a straight scratch, simulating a wound. Often we make a scratch keeping the pipette tip under an angle of around 30 degrees to keep the scratch width limited. This allows imaging of both wound edges using the 10x objective.
# The following equations are applied to calculate the healing and migration ratio Rat of migration (RM) = (wi – wf ) / t
# Wi =average of intial wound width um
# Wf= average of final wound width um
# T = time span of the assay in hours
# Percentage of wound clouser % ={ (At=0 – At=∆t ) / At=0 } 100 […]
# At=∆t = wound area after n hours
# Area difference % = (Ai – Af )
# MCF7 cell line = assay: In vitro cytotoxicity, MCF7; assay type: cell-based
# Procedure: (§1) The potential of T-1-NBAB as an anticancer agent has been highlighted through both in silico and in vitro studies, primarily due to its anti-VEGFR-2 properties. To further investigate T-1-NBAB’s cytotoxicity, it was tested against breast carcinoma epithelial cancer cell lines MCF7 and T47D.
# (§2) The cytotoxic potential of T-1-NBAB against MCF7 and T47D cell lines was accomplished by MTT procedure.
# (§3) Mammalian cell lines culture
# (§4) MCF7 and T47D cell lines were cultured on DMEM media. The cultured media were supplemented with 200 mM L-glutamine, 10.0% fetal bovine serum (Lonza), and 1.0% penicillin/streptomycin. Cells were seeded into 25.0 cm tissue culture flasks and incubated at 37◦C in a 5.0% CO2 incubator for 24 h or till confluency.
# (§5) The safety profiles of the tested compounds were checked on one non-cancerous cell line (vero) […]
# (§6) A portion of 100.0 µl of 6×10^4 cell/ml cells was seeded into each well of a 96-well plate and then the plates were incubated at 37 °C in a humidified 5.0% CO2 incubator for 24 h. […]
# (§7) The inoculated plates were incubated at the same growth conditions for another 24 h. At the end of incubation, cellular viability was assessed using MTS assay kit (Promega) according to […]
# (§8) Anticancer activities of the tested compounds against MCF7 and T47D cell lines were quantified using MTS assay kit (Promega) as described by the Manufacturer. […]
# [4] = tested on: Vero (normal epithelial) cell lines; assay: Safety assay on non-cancerous Vero cells; assay type: cell-based; conditions: Chlorocebus sabaeus, read-out: IC50 against Vero
# Procedure: as §1
# The cytotoxic potential of T-1-NBAB against non-cancerous (Vero) cell lines was accomplished by MTT procedure.
# as §3, §4, §5
# A portion of 100.0 µl of 6×10^4 cell/ml cells was seeded into each well of a 96-well plate and then the plates were incubated at 37 °C in a humidified 5.0% CO2 incubator for 24 h. At the end of incubation period, the exhausted medium was replaced with 100.0 µl of different concentrations of the designated treatment (prepared in RPMI medium starting from 1.0 mM).
# as §7
# human VEGFR-2 = molecular target: T1, human VEGFR-2 (Homo sapiens, UniProt P35968); assay: In vitro VEGFR-2 inhibition (Human VEGFR-2 ELISA kit); assay type: biochemical
# T1 construct: MCF- 7 cell line; endogenous in cells; host or cells: MCF-7
# T47D cell line = assay: In vitro cytotoxicity, T47D; assay type: cell-based
# Procedure: as §1, §2, §3, §4, §5, §6, §7, §8
# MCF7 cells [5] = assay: Apoptosis assay, flow cytometry, Annexin V and PI double staining; assay type: cell-based
# Procedure: The T-1-NBAB’s effect as an apoptotic agent was assessed via flow cytometry analysis, on MCF7 cells using Annexin V and PI double staining.
# T-1-NBAB’s apoptotic potentials and effect on MCF7 cell cycle were accomplished by flow cytometry analysis technique.
# In-vitro anticancer activity
# Anticancer activities of the tested compounds against MCF7 and T47D cell lines were quantified using MTS assay kit (Promega) as described by the Manufacturer.
# The selectivity index values of the tested compounds on cancer cells were calculated as described by Koch et al., with slight modifications; SI=IC50nc/IC50cc, where IC50nc: the IC50 value of the tested compound on normal cells and IC50cc: IC50 of the tested compound on cancer cell […]
# In vitro EGFR kinase assay
# The synthesized compound was estimated for their in vitro inhibition on human VEGFR-2 in MCF- 7 cell line; using ELISA kit. Firstly, a plate was used for the assay had been coated by an […]
# 2 inhibitor. Both standard and sample were added to the wells and incubated overnight at 4 ◦C, then washed. The biotinylated antibody was supplemented and further incubated for 1 h at room temperature. The unreacted, liberated antibody was then washed; followed by addition of HRP-conjugated streptavidin and incubated for 45 min at room temperature. Wells were washed and a TMB substrate solution was added and kept at room temperature for 30 min. Finally, the stop solution was added, and the intensity of the color produced was measured at 450 nm.
# Concentration- inhibition response curve was established by GraphPad Prism 5.0. The IC 50 value was calculated as the concentration at which 50% of the cells could survive in comparison to […]
# Flow cytometry analysis for apoptosis
# Flow cytometry cell apoptosis analysis was used to investigate the apoptotic effect of the synthesized compound. […] The stained cells were measured using Epics XL-MCL™ Flow Cytometer and analyzed […]
# VEGFR-2 = tested on: VEGFR-2; design: method as in PMID 35493991; conditions: read-out: VEGFR-2 inhibition IC50; cited from earlier work
# [6] = structural similar compounds of the TOPKAT report, ref CPDB
# T1 sequence (P35968 20-1356): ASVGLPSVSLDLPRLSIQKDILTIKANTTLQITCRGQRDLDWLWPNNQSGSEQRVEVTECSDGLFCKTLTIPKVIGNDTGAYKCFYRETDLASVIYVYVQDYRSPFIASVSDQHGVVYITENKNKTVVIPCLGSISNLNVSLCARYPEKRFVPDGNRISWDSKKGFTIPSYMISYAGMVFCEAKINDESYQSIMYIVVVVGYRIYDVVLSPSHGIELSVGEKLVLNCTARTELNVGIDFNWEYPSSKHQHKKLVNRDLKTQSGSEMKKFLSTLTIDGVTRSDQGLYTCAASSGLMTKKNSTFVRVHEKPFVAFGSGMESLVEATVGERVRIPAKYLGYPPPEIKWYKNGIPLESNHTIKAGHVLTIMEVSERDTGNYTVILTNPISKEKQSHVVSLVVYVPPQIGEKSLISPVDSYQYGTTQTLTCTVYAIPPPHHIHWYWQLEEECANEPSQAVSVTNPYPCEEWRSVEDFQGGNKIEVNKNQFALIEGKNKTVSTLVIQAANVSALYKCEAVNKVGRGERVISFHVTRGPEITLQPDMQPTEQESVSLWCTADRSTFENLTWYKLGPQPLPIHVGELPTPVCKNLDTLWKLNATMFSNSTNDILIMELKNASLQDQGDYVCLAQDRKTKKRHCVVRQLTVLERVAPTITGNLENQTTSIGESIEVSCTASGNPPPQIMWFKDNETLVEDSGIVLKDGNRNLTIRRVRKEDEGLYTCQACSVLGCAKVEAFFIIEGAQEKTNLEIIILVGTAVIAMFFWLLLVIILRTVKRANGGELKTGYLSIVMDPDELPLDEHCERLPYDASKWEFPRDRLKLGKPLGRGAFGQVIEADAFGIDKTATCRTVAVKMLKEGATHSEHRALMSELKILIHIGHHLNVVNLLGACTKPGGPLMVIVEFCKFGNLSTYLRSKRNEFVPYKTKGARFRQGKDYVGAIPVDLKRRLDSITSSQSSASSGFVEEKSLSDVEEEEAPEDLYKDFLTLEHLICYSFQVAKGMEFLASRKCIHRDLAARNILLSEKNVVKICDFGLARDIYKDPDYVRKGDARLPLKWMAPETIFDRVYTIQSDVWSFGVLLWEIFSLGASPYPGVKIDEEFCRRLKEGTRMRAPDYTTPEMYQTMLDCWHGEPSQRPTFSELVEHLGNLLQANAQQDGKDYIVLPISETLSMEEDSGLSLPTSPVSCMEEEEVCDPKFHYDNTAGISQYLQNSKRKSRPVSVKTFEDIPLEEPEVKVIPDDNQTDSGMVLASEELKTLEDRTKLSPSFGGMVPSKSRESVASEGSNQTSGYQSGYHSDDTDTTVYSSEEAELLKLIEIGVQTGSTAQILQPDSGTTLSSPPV
smiles,measurement,setting,value
O=[N+]([O-])c1ccc(-c2nc(N(CCO)CCO)c3ccccc3n2)s1 [4-Bis(2-hydroxyethyl)amino-2-(5-nitro-2-thienyl)quinazoline],"Carcinogenic potency TD50 rat, Actual Endpoint (-log C)",Rat [1]; [6],5.06 -log C
"Cc1cccc(Nc2cc(Cl)nc(SCC(=O)NCCO)n2)c1C [4-Chloro-6-(2,3-xylidino)-2-pyrimidinylthio(N-b-hydroxyethyl) acetamide]","Carcinogenic potency TD50 mouse, Actual Endpoint (-log C)",Mouse,3.915 -log C
CC(C)(Oc1ccc(CCNC(=O)c2ccc(Cl)cc2)cc1)C(=O)O [BEZAFIBRATE],"Rat oral LD50, Actual Endpoint (-log C)",Rats,1.946 -log C
COC(=O)Nc1nc2ccccc2n1C(=O)NCCCCCC#N [CARBAMIC ACID; [1-[(5-CYANOPENTYL)CARBAMOYL]BENZIMIDAZOL-2-YL]-; METHYL ESTER],"Rat oral LD50, Actual Endpoint (-log C)",Rats,2.12 -log C
COC(=O)Nc1nc2cc(C(=O)c3ccc(F)cc3)ccc2[nH]1 [FLUBENDAZOLE],"Rat oral LD50, Actual Endpoint (-log C)",Rats,2.088 -log C
"CC(C)n1c(/C=C/C(O)CC(O)CC(=O)O)c(-c2ccc(F)cc2)c2ccccc21 (stereo not drawn) [Fluvastatin, reference compound]","Carcinogenic potency TD50 rat, Actual Endpoint (-log C)",Rat [1],3.517 -log C
C[C@@H]1Cc2c(Cl)cc(C(=O)N[C@@H](Cc3ccccc3)C(=O)O)c(O)c2C(=O)O1 [OCHRATOXIN],"Rat maximum tolerated dose gavage, Actual Endpoint (-log C)",Rat [2],6.284 -log C
C[C@@H]1Cc2c(Cl)cc(C(=O)N[C@@H](Cc3ccccc3)C(=O)O)c(O)c2C(=O)O1 [Ochratoxin A],"Carcinogenic potency TD50 mouse, Actual Endpoint (-log C)",Mouse,4.799 -log C
same,"Carcinogenic potency TD50 rat, Actual Endpoint (-log C)",Rat [1]; [6],6.473 -log C
NS(=O)(=O)c1cc(C(=O)O)cc(N2CCCC2)c1Oc1ccccc1 [PIRETANIDE],"Rat oral LD50, Actual Endpoint (-log C)",Rats,1.811 -log C
Cc1noc(NS(=O)(=O)c2ccc(N)cc2)c1C [SULFISOOXAZOLE],"Rat maximum tolerated dose gavage, Actual Endpoint (-log C)",Rat [2],2.825 -log C
Cn1cnc2c1c(=O)n(CC(=O)Nc1ccc(C(=O)NCc3ccccc3)cc1)c(=O)n2C [T-1-NBAB],area difference,"MCF7 cells [3]; 0 h vs 48 h, control 659.8333",112 µm²
same,RM (rate of migration),"MCF7 cells [3]; 48 h, control 13.74681",2.322 µm/h
same,Wound closure %,"MCF7 cells [3]; 48 h, control 65.96135",12.16%
same,Scratch area at 0h,MCF7 cells [3]; mean of five values,917
same,Scratch area at 48 h,MCF7 cells [3]; mean of five values,805.5
same,Scratch width at 0h,MCF7 cells [3]; mean of five values,916.0155
same,Scratch width at 48 h,MCF7 cells [3]; mean of five values,804.5532
same,Reduction of scratch width after 48 hours,MCF7 cells [3]; untreated control closed 65.9%,12%
same,IC50,"MCF7 cell line; Homo sapiens, breast cancer cell line MCF7, read-out: IC50 against MCF7",16.9 µM
same,Selectivity index (SI) against MCF7,MCF7 cell line; IC50 normal cells (Vero) / IC50 MCF7,4.1
same,IC50,[4],68.4 µM
same,IC50,human VEGFR-2,0.115 µM
same,IC50,"T47D cell line; Homo sapiens, breast cancer cell line T47D, read-out: IC50 against T47D",61.2 µM
same,Selectivity index (SI) against T47D,T47D cell line; IC50 normal cells (Vero) / IC50 T47D,1.1
same,Apoptosis Late,MCF7 cells [5]; control 0.12,2.88%
same,Apoptosis Early,MCF7 cells [5]; control 0.72,3.51%
same,Necrosis,MCF7 cells [5]; control 2.21,9.37%
CC1(C)S[C@@H]2[C@H](NC(=O)COc3ccccc3)C(=O)N2[C@H]1C(=O)O [[…]],"Rat maximum tolerated dose gavage, Actual Endpoint (-log C)",Rat [2],2.545 -log C
Cc1nc2ccccc2n(CC(=O)Nc2ccc(C(=O)Nc3cccc(Cl)c3)cc2)c1=O [compound V],IC50,VEGFR-2,0.0027 µM
